Source: patent US7582610B2, “Melanocortin receptor templates, peptides and use thereof” (priority 2003, dated 2009)
Where a SMILES comes first, the peptide text is derived from it. Bridges are numbered along the chain shown (N, C = ends). [ ]: non-standard residue; d: D form. Nle = CCCC[C@H](N)C(=O)O; Dap = NC[C@H](N)C(=O)O

Assays:
[1] = target: T1, mMC4R (Mus musculus, UniProt P56450); assay: Functional bioassay, CRE/β-galactosidase reporter in HEK-293 cells stably expressing mMC4R
Method: (§1) 5,000 to 15,000 post transfection cells were plated into 96 well Primera plates (Falcon) and incubated overnight. […] The assay media was aspirated and 50 μL of lysis buffer (250 mM Tris-HCl pH=8.0 and 0.1% Triton X-100) was added. The plates were stored at −80° overnight.
(§2) The plates containing the cell lysates were thawed the following day. Aliquots of 10 μL were taken from each well and transferred to another 96-well plate for relative protein determination. To the cell lysate plates, 40 μL phosphate-buffered saline with 0.5% BSA was added to each well. Subsequently, 150 μL substrate buffer (60 mM sodium phosphate, 1 mM MgCl2, 10 mM KCl, 5 mM β-mercaptoethanol, 200 mg/100 mL ONPG) was added to each well and the plates were incubated at 37°.
(§3) The sample absorbance, OD405, was measured using a 96 well plate reader (Molecular Devices). The relative protein was determined by adding 200 μL 1:5 dilution Bio Rad G250 protein dye:water to the 10 μL cell lysate sample taken previously, and the OD595 was measured on a 96 well plate reader (Molecular Devices). Data points were normalized both to the relative protein content and non-receptor dependent forskolin stimulation.
(§4) For data analysis, EC50 and pA2 values represent the mean of duplicate experiments performed in triplet, quadruplet or more independent experiments.

[2] = target: T2, mMC3R (Mus musculus, UniProt P33033); assay: Functional bioassay, CRE/β-galactosidase reporter in HEK-293 cells stably expressing mMC3R; conditions: for pharmacology in words at mMC3R: slight agonist = some stimulatory response at 100 μM, not enough to determine an EC50
Method: as §1, §2, §3, §4

[3] = target: T2, mMC3R; assay: Receptor binding study, competitive displacement of 125I-NDP-MSH at mMC3R; set-up: expressed in transfected cells; conditions: peptide at 10 μM
[4] = target: mMC1R (Mus musculus, UniProt Q01727); assay: Functional bioassay, CRE/β-galactosidase reporter in HEK-293 cells stably expressing mMC1R; conditions: for pharmacology in words at mMC1R: slight agonist = some stimulatory response at 100 μM, not enough to determine an EC50
Method: as §1, §2, §3, §4

[5] = target: T1, mMC4R; assay: Receptor binding study, competitive displacement of 125I-NDP-MSH at mMC4R; set-up: expressed in transfected cells; conditions: peptide at 10 μM
[6] = target: mMC5R (Mus musculus, UniProt P41149); assay: Functional bioassay, CRE/β-galactosidase reporter in HEK-293 cells stably expressing mMC5R; conditions: for pharmacology in words at mMC5R: slight agonist = some stimulatory response at 100 μM, not enough to determine an EC50
Sequence of mMC5R (P41149 whole entry): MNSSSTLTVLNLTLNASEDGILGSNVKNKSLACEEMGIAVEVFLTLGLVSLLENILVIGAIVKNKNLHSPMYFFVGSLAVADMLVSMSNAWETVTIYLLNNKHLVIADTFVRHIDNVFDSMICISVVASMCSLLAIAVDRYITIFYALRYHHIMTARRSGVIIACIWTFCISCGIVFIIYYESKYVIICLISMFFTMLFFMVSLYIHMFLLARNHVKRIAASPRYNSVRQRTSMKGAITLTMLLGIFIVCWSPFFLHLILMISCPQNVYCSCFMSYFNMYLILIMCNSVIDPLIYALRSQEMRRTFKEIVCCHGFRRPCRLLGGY
Method: as §1, §2, §3, §4

T1 sequence (P56450 whole entry): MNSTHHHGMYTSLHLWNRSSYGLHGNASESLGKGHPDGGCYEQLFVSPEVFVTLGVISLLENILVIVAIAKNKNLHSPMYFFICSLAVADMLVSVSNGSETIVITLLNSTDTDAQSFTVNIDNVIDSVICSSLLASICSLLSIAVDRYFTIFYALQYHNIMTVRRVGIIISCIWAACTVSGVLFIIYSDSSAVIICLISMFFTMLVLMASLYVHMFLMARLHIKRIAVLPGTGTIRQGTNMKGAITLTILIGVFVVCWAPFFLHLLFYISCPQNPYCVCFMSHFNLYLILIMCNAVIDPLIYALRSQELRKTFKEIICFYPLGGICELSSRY
Sequence of mMC1R (Q01727 whole entry): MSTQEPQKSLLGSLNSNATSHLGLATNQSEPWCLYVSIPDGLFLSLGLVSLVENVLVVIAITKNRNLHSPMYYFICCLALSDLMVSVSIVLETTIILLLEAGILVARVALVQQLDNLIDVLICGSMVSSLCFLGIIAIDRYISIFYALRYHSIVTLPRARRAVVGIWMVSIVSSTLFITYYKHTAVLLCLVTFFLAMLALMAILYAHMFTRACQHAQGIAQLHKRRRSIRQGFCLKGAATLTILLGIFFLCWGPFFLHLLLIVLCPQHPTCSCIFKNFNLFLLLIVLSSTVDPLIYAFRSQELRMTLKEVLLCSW
T2 sequence (P33033 whole entry): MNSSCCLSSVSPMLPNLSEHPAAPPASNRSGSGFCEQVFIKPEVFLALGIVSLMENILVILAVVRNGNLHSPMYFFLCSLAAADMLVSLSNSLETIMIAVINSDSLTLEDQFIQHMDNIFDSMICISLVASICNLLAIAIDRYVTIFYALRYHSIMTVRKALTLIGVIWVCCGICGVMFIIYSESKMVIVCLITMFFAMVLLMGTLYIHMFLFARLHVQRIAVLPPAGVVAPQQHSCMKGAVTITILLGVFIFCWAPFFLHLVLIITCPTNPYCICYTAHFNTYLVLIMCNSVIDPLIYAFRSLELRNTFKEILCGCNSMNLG

SMILES	EC50 [1] [µM]	pharmacology in words at mMC3R [2]	specific binding at mMC3R (displacement of 125I-NDP-MSH) [3]	EC50 [6] [µM]	EC50 [4] [µM]	EC50 [2] [µM]	pharmacology in words at mMC1R [4]	further results
C[C@@H]1NC(=O)[C@H](CC(N)=O)NC(=O)[C@H](Cc2c[nH]c3ccccc23)NC(=O)[C@H](CCCNC(=N)N)NC(=O)[C@@H](Cc2ccccc2)NC(=O)[C@@H](NC(=O)[C@@H](N)Cc2ccc(O)cc2)CC(=O)NC[C@@H](C(=O)N[C@@H](Cc2ccc(O)cc2)C(N)=O)NC(=O)[C@H](Cc2ccccc2)NC1=O [SEQ ID NO: 7, Tyr-c[Asp-DPhe-Arg-Trp-Asn-Ala-Phe-Dpr]-Tyr] (H-YD[dF]RWNAF[Dap]Y-NH2; lactam 2-9)	0.45	Slight agonist	≤ 25%					MC4R versus MC3R selective ([1]; agonist EC50 ratio): > 200 fold
C[C@@H]1NC(=O)[C@H](CC(N)=O)NC(=O)[C@H](Cc2ccccc2)NC(=O)[C@H](Cc2ccccc2)NC(=O)[C@H](CCCNC(=N)N)NC(=O)[C@H](Cc2c[nH]cn2)NC(=O)[C@@H](NC(=O)[C@@H](N)Cc2ccc(O)cc2)CC(=O)NC[C@@H](C(=O)N[C@@H](Cc2ccc(O)cc2)C(N)=O)NC(=O)[C@H](Cc2ccccc2)NC1=O [SEQ ID NO: 8] (H-YDHRFFNAF[Dap]Y-NH2; lactam 2-10)		Slight agonist	less than 50%					decreased mMC1R agonist potency ([4]; compared with SEQ ID NO:3): 8 fold; specific binding at mMC4R (displacement of 125I-NDP-MSH) [5]: less than 50%
CCCC[C@H](NC(=O)[C@H](CO)NC(=O)[C@H](Cc1ccc(O)cc1)NC(=O)[C@H](CO)NC(C)=O)C(=O)N[C@@H](CCC(=O)O)C(=O)N[C@@H](Cc1c[nH]cn1)C(=O)N[C@@H](C)C(=O)N[C@@H](C)C(=O)N[C@@H](C)C(=O)NCC(=O)N[C@@H](CCCCN)C(=O)N1CCC[C@H]1C(=O)N[C@H](C(N)=O)C(C)C [SEQ ID NO: 12] (Ac-SYS[Nle]EHAAAGKPV-NH2)	> 100		≤ 25%	> 100	> 100	> 100		
CCCC[C@H](NC(=O)[C@H](CO)NC(=O)[C@H](Cc1ccc(O)cc1)NC(=O)[C@H](CO)NC(C)=O)C(=O)N[C@@H](CCC(=O)O)C(=O)N[C@@H](Cc1c[nH]cn1)C(=O)N[C@H](CCCNC(=N)N)C(=O)N[C@@H](Cc1ccccc1)C(=O)N[C@@H](Cc1ccccc1)C(=O)NCC(=O)N[C@@H](CCCCN)C(=O)N1CCC[C@H]1C(=O)N[C@H](C(N)=O)C(C)C [SEQ ID NO: 16, Ac-Ser-Tyr-Ser-Nle-Glu-His-DArg-Phe-Phe-Gly-Lys-Pro-Val] (Ac-SYS[Nle]EH[dR]FFGKPV-NH2)	> 100					> 100	Slight agonist	pharmacology in words at mMC5R [6]: Slight agonist
CCCC[C@H](NC(=O)[C@H](CO)NC(=O)[C@H](Cc1ccc(O)cc1)NC(=O)[C@H](CO)NC(C)=O)C(=O)N[C@@H](CCC(=O)O)C(=O)N[C@@H](Cc1c[nH]cn1)C(=O)N[C@@H](CCCNC(=N)N)C(=O)N[C@H](Cc1ccccc1)C(=O)N[C@@H](Cc1ccccc1)C(=O)NCC(=O)N[C@@H](CCCCN)C(=O)N1CCC[C@H]1C(=O)N[C@H](C(N)=O)C(C)C [SEQ ID NO: 17, Ac-Ser-Tyr-Ser-Nle-Glu-His-Arg-DPhe-Phe-Gly-Lys-Pro-Val] (Ac-SYS[Nle]EHR[dF]FGKPV-NH2)								pharmacology in words at mMC4R ([1]; slight agonist = some stimulatory response at 100 μM, not enough to determine an EC50): Slight agonist; MC1R versus MC3R selective ([4]; agonist EC50 ratio): 850 fold; MC1R versus MC5R selective ([4]; agonist EC50 ratio): 62 fold; increase in mMC1R agonist potency ([4]; compared with SEQ ID NO:15): 8 fold; specific binding at mMC4R (displacement of 125I-NDP-MSH) [5]: ≤ 25%; decreased mMC3R agonist potency ([2]; compared with SEQ ID NO:15): 13 fold
CCCC[C@H](NC(C)=O)C(=O)N[C@H]1CC(=O)NCCCC[C@@H](C(N)=O)NC(=O)[C@H](Cc2ccccc2)NC(=O)[C@H](Cc2ccccc2)NC(=O)[C@H](CCCNC(=N)N)NC(=O)[C@H](Cc2c[nH]cn2)NC1=O [SEQ ID NO: 20, Ac-Nle-c[Asp-His-Arg-Phe-Phe-Lys]] (Ac-[Nle]DHRFFK-NH2; lactam 2-7; C-terminus assumed)	> 100			> 100		> 100	Partial agonist	

Second part, led by results:

EC50 [1] [µM]	pharmacology in words at mMC3R [2]	specific binding at mMC3R (displacement of 125I-NDP-MSH) [3]	EC50 [6] [µM]	EC50 [4] [µM]	EC50 [2] [µM]	pharmacology in words at mMC1R [4]	SMILES	further results
> 100	Partial agonist					Partial agonist	CCCC[C@H](NC(=O)[C@H](CO)NC(=O)[C@H](Cc1ccc(O)cc1)NC(=O)[C@H](CO)NC(C)=O)C(=O)N[C@@H](CCC(=O)O)C(=O)N[C@@H](Cc1c[nH]cn1)C(=O)N[C@@H](Cc1ccccc1)C(=O)N[C@@H](Cc1ccccc1)C(=O)N[C@@H](CCCNC(=N)N)C(=O)NCC(=O)N[C@@H](CCCCN)C(=O)N1CCC[C@H]1C(=O)N[C@H](C(N)=O)C(C)C [SEQ ID NO: 14] (Ac-SYS[Nle]EHFFRGKPV-NH2)	pharmacology in words at mMC5R [6]: Partial agonist
> 100			> 100	> 100	> 100		CCCC[C@H](NC(C)=O)C(=O)N[C@H]1CC(=O)NCCCC[C@@H](C(N)=O)NC(=O)[C@H](C)NC(=O)[C@H](C)NC(=O)[C@H](C)NC(=O)[C@H](Cc2c[nH]cn2)NC1=O [SEQ ID NO: 19, Ac-Nle-c[Asp-His-Ala-Ala-Ala-Lys]] (Ac-[Nle]DHAAAK-NH2; lactam 2-7)	
> 100			> 100	> 100	> 100		CCCC[C@H](NC(C)=O)C(=O)N[C@H]1CC(=O)NCCCC[C@@H](C(N)=O)NC(=O)[C@H](Cc2ccccc2)NC(=O)[C@H](Cc2ccccc2)NC(=O)[C@@H](CCCNC(=N)N)NC(=O)[C@H](Cc2c[nH]cn2)NC1=O [SEQ ID NO: 21, Ac-Nle-c[Asp-His-DArg-Phe-Phe-Lys]] (Ac-[Nle]DH[dR]FFK-NH2; lactam 2-7)	
